Earlier results on five molecules are cited in patent US20240423896A1, “METHOD FOR IMPROVING THE TACTILE SENSATION OF DYED KERATINOUS FIBRES, IN PARTICULAR HUMAN HAIR” (HENKEL AG & CO. KGAA, priority 2021, published 2024).

The conditions of the data set: 25° C.

As for `Nc1cc(S(=O)(=O)[O-])cc2cc(S(=O)(=O)[O-])c(N=Nc3ccccc3)c(O)c12.[Na+].[Na+]` [Acid Red 33, disodium salt of 5-amino-4-hydroxy-3-(phenylazo)-naphthalene-2,7-disulfonate], the solubility in water is 2500 µg/mL.
Turning to `CCN(Cc1cccc(S(=O)(=O)[O-])c1)c1ccc(C(=C2C=CC(=[N+](CC)Cc3cccc(S(=O)(=O)[O-])c3)C=C2)c2ccccc2S(=O)(=O)[O-])cc1.[Na+].[Na+]` [Acid Blue 9, disodium salt of 2-({4-[N-ethyl(3-sulfonatobenzyl]amino]phenyl}{4-(N-ethyl(3-sulfonatobenzyl)imino]-2,5-cyclohexadien-1-ylidene}methyl)-benzenesulfonate], the water solubility entry was “more than 20 wt. %”.
On to `O=C([O-])C1=NN(c2ccc(S(=O)(=O)[O-])cc2)C(=O)C1N=Nc1ccc(S(=O)(=O)[O-])cc1.[Na+].[Na+].[Na+]` (centres unmarked) [Acid Yellow 23, trisodium salt of 4,5-dihydro-5-oxo-1-(4-sulfophenyl)-4-((4-sulfophenyl)azo)-1H-pyrazole-3-carboxylic acid], for which the “solubility in water (in words)” value is reported as “readily soluble in water”.
In the case of `O=C([O-])c1c(Cl)c(Cl)c(Cl)c(Cl)c1-c1c2cc(Br)c(=O)c(Br)c-2oc2c(Br)c([O-])c(Br)cc12.[Na+].[Na+]` [Acid Red 92, disodium salt of 3,4,5,6-tetrachloro-2-(1,4,5,8-tetrabromo-6-hydroxy-3-oxanthene-9-yl) benzoic acid], the solubility in water entry is recorded as “greater than 10 g/L”.
As to `O=S(=O)([O-])c1ccc(N=Nc2c(O)ccc3ccccc23)cc1.[Na+]` [Acid Orange 7, sodium salt of 4-[(2-hydroxy-1-naphthyl)azo]benzene sulphonate], the solubility in water entry is “more than 7 g/L”.
